In patent US8410090B2, “Heterocyclylamide-substituted thiazoles, pyrroles and thiophenes” (AiCuris GmbH & Co. KG, priority 2005, dated 2013):

Tests used:
[1] = test system: HCMV; assay: Anti-HCMV cytopathogenicity test (CPE inhibition); assay type: cell-based, human cytomegalovirus; settings: for EC50: Human betaherpesvirus 5, 144 h, concentration inhibiting CPE by 50% vs untreated virus control, HCMV-infected NHDF cells, M.O.I. 0.001-0.002, 6 days; for SI HCMV (selectivity index = CC50 (NHDF)/EC50 (HCMV)): ratio CC50 (NHDF)/EC50 (HCMV)
Description: Anti-HCMV (Anti-Human Cytomegalovirus) Cytopathogenicity Tests The test compounds are employed as 50 millimolar (mM) solutions in dimethyl sulphoxide (DMSO). Ganciclovir, foscarnet and cidofovir are used as reference compounds. After addition of in each case 2 μl of the 50, 5, 0.5 and 0.05 mM DMSO stock solutions to 98 μl portions of cell culture medium in row […] for duplicate determinations, 1:2 dilutions are carried out with 50 μl portions of medium up to row 11 of the 96-well plate. The wells in rows 1 and 12 each contain 50 μl of medium. Then 150 μl portions of a suspension of 1×10^4 cells (human prepuce fibroblasts [NHDF]) are pipetted into each of the wells (row 1=cell control) and, in rows 2-12, a mixture of HCMV-infected and uninfected NHDF cells (M.O.I.=0.001-0.002), i.e. 1-2 infected cells per 1000 uninfected cells. Row 12 (without substance) serves as virus control. The final test concentrations are 250-0.0005 μM. The plates are incubated at 37° C./5% CO2 for 6 days, i.e. until all the cells are infected in the virus controls (100% cytopathogenic effect [CPE]). The wells are then fixed and stained by adding a mixture of formalin and Giemsa's dye (30 minutes), washed with double-distilled water and dried in a drying oven at 50° C. The plates are then assessed visually using an overhead microscope (Plaque Multiplier from Technomara). The following data can be acquired from the test plates: EC50 (HCMV)=substance concentration in μM which inhibits the CPE (cytopathic effect) by 50% compared with the untreated virus control; SI (selectivity index)=CC50 (NHDF)/EC50 (HCMV).

[2] = Cytostatic effect on NHDF cells in the anti-HCMV cytopathogenicity test; assay type: cell-based; settings: human, NHDF cells (human prepuce fibroblasts); maximum concentration with no visible cytostatic effects on NHDF cells vs untreated cell control; 6 days incubation
Description: Anti-HCMV (Anti-Human Cytomegalovirus) Cytopathogenicity Tests The test compounds are employed as 50 millimolar (mM) solutions in dimethyl sulphoxide (DMSO). Ganciclovir, foscarnet and cidofovir are used as reference compounds. After addition of in each case 2 μl of the 50, 5, 0.5 and 0.05 mM DMSO stock solutions to 98 μl portions of cell culture medium in row […] for duplicate determinations, 1:2 dilutions are carried out with 50 μl portions of medium up to row 11 of the 96-well plate. The wells in rows 1 and 12 each contain 50 μl of medium. Then 150 μl portions of a suspension of 1×10^4 cells (human prepuce fibroblasts [NHDF]) are pipetted into each of the wells (row 1=cell control) and, in rows 2-12, a mixture of HCMV-infected and uninfected NHDF cells (M.O.I.=0.001-0.002), i.e. 1-2 infected cells per 1000 uninfected cells. Row 12 (without substance) serves as virus control. The final test concentrations are 250-0.0005 μM. The plates are incubated at 37° C./5% CO2 for 6 days, i.e. until all the cells are infected in the virus controls (100% cytopathogenic effect [CPE]). The wells are then fixed and stained by adding a mixture of formalin and Giemsa's dye (30 minutes), washed with double-distilled water and dried in a drying oven at 50° C. The plates are then assessed visually using an overhead microscope (Plaque Multiplier from Technomara). The following data can be acquired from the test plates: CC50 (NHDF)=maximum substance concentration in μM at which no visible cytostatic effects on the cells are evident by comparison with the untreated cell control;

SMILES | EC50 [1] | SI HCMV (selectivity index = CC50 (NHDF)/EC50 (HCMV)) [1] | CC50 at 6 days [2]
CCn1cc(NC(=O)Nc2ccc(OC(F)(F)F)cc2)cc1C(=O)N1CCN(c2ccc(C)cn2)CC1 [Example 4, N-(1-Ethyl-5-{[4-(5-methylpyridin-2-yl)piperazin-1-yl]carbonyl}-1H-pyrrol-3-yl)-N′-[4-(trifluoromethoxy)phenyl]urea] | 0.0007 µM | 28767 | 21 µM
Cc1ccc(N2CCN(C(=O)c3cc(NC(=O)Nc4ccc(OC(F)(F)F)cc4)cs3)CC2)nc1 [Example 9, N-(5-{[4-(5-Methylpyridin-2-yl)piperazin-1-yl]carbonyl}-3-thienyl)-N′-[4-(trifluoromethoxy)-phenyl]urea] | 0.0059 µM | 3559 | 21 µM
Cc1ccc(N2CCN(C(=O)c3nc(NC(=O)Nc4ccc(OC(F)(F)F)cc4)sc3C)CC2)nc1 [Example 14] | 0.0016 µM | 7333 | 11 µM
Cc1ccc(N2CCN(C(=O)c3cnc(NC(=O)Nc4ccc(OC(F)(F)F)cc4)s3)CC2)nc1 [Example 23] | 0.0054 µM | 2637 | 11 µM
